Source: patent US8211931B2, “Active compound combinations having insecticidal and acaricidal properties” (Bayer Cropscience AG, priority 2006, dated 2012)

How the values were obtained:
Assay type in all cases: in vivo
[1] = tested on: Psylla pyri; assay: Field test on pear trees against pear psyllids, kill of L-1 and L-4 nymphs; details: for Activity (% Abbott) Psylla piri L-1: L-1 nymphs; for Activity (% Abbott) Psylla piri L-4: L-4 nymphs
Procedure: In 4 replications, pear trees of the cultivar “Conference” of a height of about 3 m are treated against pear psyllids, Psylla pyri. Here, the active compound (I-4′) (100 OD) and the commercial standard Amitraz (UL 400) are applied at the stated application rates. The application is carried out using a knapsack sprayer and an application rate of 1000 l of water/ha. The beneficial species Anthocoris nemoralis appears 14 days after the treatment.
Evaluation is carried out 4, 8 and 14 days after the treatment by evaluating the kill of the L-1 nymphs and the L-4 nymphs on the branches.

[2] = tested on: Eriosoma lanigerum; assay: Field test on apple trees against woolly apple aphids, kill according to Abbott
Procedure: In three replications, in each case three about 25-year old apple trees (crown height about 2 m) of the cultivar “Elan” are treated against woolly apple aphids, Eriosoma lanigerum. Here, the active compound (I-4′) (150 OD) and the commercial standard clothianidin (WG 50) are tested comparatively at the stated application rates in the presence of the woolly aphid parasite (beneficial species) Aphelinus mali. The application is carried out using an atomizer at a water application rate of 500 l/ha. Both one and two applications at an interval of 34 days are carried out.
Evaluation is carried out 7, 30, 44, 52, 59, 66 and 73 days after the first treatment by evaluating the kill of the adult pests and the number of parasitic pests in each case 10 colonies according to Abbott.

[3] = tested on: Myzus persicae; assay: Myzus persicae test (cabbage leaves sprayed, ladybird larvae added); details: 4 ppm, active compound alone
Procedure: (§1) To produce a suitable preparation of active compound, 1 part by weight of active compound is mixed with the stated amounts of solvent and emulsifier, and the concentrate is diluted with emulsifier-containing water to the desired concentration.
Cabbage leaves (Brassica oleracea) infested by the green peach aphid (Myzus persicae) are treated by being sprayed with the preparation of active compound at the desired concentration.
After the desired period of time, a defined amount of ladybird larvae (Coccinella septempunctata) is added.
After the desired period of time, the kill of the pest in % is determined. 100% means that all aphids have been killed; 0% means that none of the aphids have been killed.
The determined kill rates are entered into Colby's formula.

[4] = tested on: Bemisia tabaci; assay: Bemisia tabaci test (cotton leaves sprayed, mirid bugs added); details: 0.16 ppm, active compound alone
Procedure: as §1
Cotton leaves (Gossypium hirsutum) infested by the whitefly (Bemisia tabacii) are treated by being sprayed with the preparation of active compound at the desired concentration.
After the desired period of time, a defined amount of mirid bugs (Macrolophus caliginosus) is added.
After the desired period of time, the kill of the pest in % is determined. 100% means that all whiteflies have been killed; 0% means that none of the whiteflies have been killed. The determined kill rates are entered into Colby's formula.

[5] = 8 d, 75 g/ha/m crown height, 100 OD
[6] = 14 d, 75 g/ha/m crown height, 100 OD
[7] = 8 d, 400 g/ha/m crown height, UL 400
[8] = 14 d, 400 g/ha/m crown height, UL 400

CCOC(=O)OC1=C(c2cc(C)ccc2C)C(=O)N[C@]12CC[C@@H](OC)CC2 [Ex. I-4′]
Activity (% Abbott) Psylla piri L-1 ([1]; 4 d, 75 g/ha/m crown height, 100 OD, pear trees): 62.7 % Abbott
Activity (% Abbott) Psylla piri L-1 [1, 5]: 69.5 % Abbott
Activity (% Abbott) Psylla piri L-1 [1, 6]: 76.6 % Abbott
Activity (% Abbott) Psylla piri L-4 ([1]; 4 d, 75 g/ha/m crown height, 100 OD): 91.4 % Abbott
Activity (% Abbott) Psylla piri L-4 [1, 5]: 98.4 % Abbott
Activity (% Abbott) Psylla piri L-4 [1, 6]: 99.3 % Abbott
Activity (% Abbott) Eriosoma lanigerum ([2]; 7 d, 75 g/ha/m crown height, 150 OD, one treatment, apple trees, Aphelinus mali present): 48 % Abbott
Activity (% Abbott) Eriosoma lanigerum ([2]; 30 d, 75 g/ha/m crown height, 150 OD, one treatment): 95 % Abbott
Activity (% Abbott) Eriosoma lanigerum ([2]; 44 d, 75 g/ha/m crown height, 150 OD, one treatment): 99 % Abbott
Activity (% Abbott) Eriosoma lanigerum ([2]; 52 d, 75 g/ha/m crown height, 150 OD, one treatment): 99.4 % Abbott
Activity (% Abbott) Eriosoma lanigerum ([2]; 59 d, 75 g/ha/m crown height, 150 OD, one treatment): 98.2 % Abbott
Activity (% Abbott) Eriosoma lanigerum ([2]; 66 d, 75 g/ha/m crown height, 150 OD, one treatment): 98 % Abbott
Activity (% Abbott) Eriosoma lanigerum ([2]; 73 d, 75 g/ha/m crown height, 150 OD, one treatment): 98 % Abbott
Activity against Eriosoma lanigerum ([2]; after two treatments): 100%
Kill in % after 7 d [3]: 10%
Kill in % after 14 d [4]: 0%

CN/C(=N\[N+](=O)[O-])NCc1cnc(Cl)s1 [Clothianidin, clothianidin, reference compound]
Activity (% Abbott) Eriosoma lanigerum ([2]; 7 d, 37.5 g/ha/m crown height, WG 50, two treatments, apple trees, Aphelinus mali present): 71 % Abbott
Activity (% Abbott) Eriosoma lanigerum ([2]; 30 d, 37.5 g/ha/m crown height, WG 50, two treatments): 76 % Abbott
Activity (% Abbott) Eriosoma lanigerum ([2]; 44 d, 37.5 g/ha/m crown height, WG 50, two treatments): 85 % Abbott
Activity (% Abbott) Eriosoma lanigerum ([2]; 52 d, 37.5 g/ha/m crown height, WG 50, two treatments): 81.8 % Abbott
Activity (% Abbott) Eriosoma lanigerum ([2]; 59 d, 37.5 g/ha/m crown height, WG 50, two treatments): 81.8 % Abbott
Activity (% Abbott) Eriosoma lanigerum ([2]; 66 d, 37.5 g/ha/m crown height, WG 50, two treatments): 80 % Abbott
Activity (% Abbott) Eriosoma lanigerum ([2]; 73 d, 37.5 g/ha/m crown height, WG 50, two treatments): 80 % Abbott

Cc1ccc(/N=C/N(C)/C=N/c2ccc(C)cc2C)c(C)c1 [Amitraz, reference compound]
Activity (% Abbott) Psylla piri L-1 ([1]; 4 d, 400 g/ha/m crown height, UL 400, pear trees): 23.6 % Abbott
Activity (% Abbott) Psylla piri L-1 [1, 7]: 41.0 % Abbott
Activity (% Abbott) Psylla piri L-1 [1, 8]: 41.8 % Abbott
Activity (% Abbott) Psylla piri L-4 ([1]; 4 d, 400 g/ha/m crown height, UL 400): 0.0 % Abbott
Activity (% Abbott) Psylla piri L-4 [1, 7]: 44.6 % Abbott
Activity (% Abbott) Psylla piri L-4 [1, 8]: 44.4 % Abbott
